These are literature values, as cited in patent US20100311674A1, “PHARMACEUTICAL COMPOSITIONS WITH A MECHANISM OF MULTI-TARGET RECEPTOR RETROACTION FOR TREATING DEPRESSION” (Yu-Fen Chi, priority 2007, published 2010).

For data set [1] the following is noted: cited from earlier work.
For data set [2] the following is noted: in the human body; cited from earlier work.

Turning to `COc1ccc(C2CNC(=O)C2)cc1OC1CCCC1` (stereo not drawn) [Rolipram], the “Anti-depression function (in words)” value in data set [1] (clinical trials) was “obvious anti-depression function”. Moreover, the “Side effect (in words)” value in data set [1] (in vivo) was “severe emesis”. As to `CC1(C)[C@@H](O[C@H]2O[C@H](C(=O)O)[C@@H](O)[C@H](O)[C@H]2O[C@@H]2O[C@H](C(=O)O)[C@@H](O)[C@H](O)[C@H]2O)CC[C@]2(C)[C@H]3C(=O)C=C4[C@@H]5C[C@@](C)(C(=O)O)CC[C@]5(C)CC[C@@]4(C)[C@]3(C)CC[C@@H]12` [glycyrrhizic acid], the “Conversion rate of glycyrrhizic acid to glycyrrhetinic acid” value in data set [2] is on record as roughly 100%.
